Measured values taken from patent publication USRE39220E1, “Peptide-mediated gene transfer” (Genetic Applications, LLC, priority 1994, dated 2006).

Key:
Assay type in all cases: cell-based
[1] = system: Mouse fibroblast cell line (L cells); test: Selection of stably transfected cell lines (G418-resistant colonies); details: G418 400 μg/ml selection, colonies counted two weeks after start of selection, similar with hygromycin
Excerpt: The DNA or other polynucleotide to be transfected, such as a plasmid containing a gene for a drug resistance marker or coding a protein needed for expression in the host cell, is complexed to a synthetic polypeptide molecule in different weight ratios in an isotonic buffer solution. For example the weight ratio of DNA:polypeptide can be between 1:1 and 10:1, although ratios outside of this range may be evaluated empirically for achieving the objects of the present invention. An isotonic buffer solution such as Hanks buffered salt solution or HEPES buffered saline may be used for complexing DNA to polypeptide.
(§1) While the complex is formed, the cells that are to be transfected either remain attached to a substratum, such as a tissue culture dish, or are pelleted (for cells that grow in suspension). The cells are treated with a hypertonic primer solution, such as a concentration of 0.3M-0.6M sucrose and 10% PEG in either Tris-HCl or HEPES (pH 7.2) buffered solution, for 3-5 mins at room temperature. The primer solution then is removed.
After the DNA-polypeptide complex is formed, it is made hypotonic. […]
Transfected cells are grown in regular growth medium for 48 hours, and then plated in selective medium containing 400 μg/ml of G418. […] The number of G418-resistant colonies was determined two weeks after the initiation of selection. […]

[2] = system: COS cells; test: Transient expression of β-gal reporter gene (CH110) in COS cells; details: DNA-polypeptide 2.5-5.0 μg, stained 48 hrs after transfection
Procedure: as §1
After the DNA-polypeptide complex is formed, it is made hypotonic. The complex solution is hypotonic when it has a lesser osmotic pressure than a 0.15M or 0.9% solution of NaCl. For example, the complex in isotonic buffer can be made […] hypotonic or 0.075M simply by adding an amount of distilled water that is equal to the volume of the complex in isotonic buffer. The hypotonic complex solution then is added to the cells that have been treated with the primer solution. Cells remain in the hypotonic DNA-polypeptide solution for 3-4 minutes. Fresh medium then is added to the cells to rinse away excess DNA-polypeptide solution. Thereafter, the cells are grown normally.
Three different cell lines were used to test the efficiency of gene transfer of the new method. Mouse fibroblast cell line (L cells), mouse erythroleukemia cell line (C19TK), and COS cells. The COS cell line was used to establish conditions for transient gene expression. […]

[3] = system: mouse erythroleukemia cell line, C19TK; test: Stable transfection of hematopoietic cells in suspension, hygromycin selection (pDR2); details: pDR2, hygromycin selection in microtiter plates, plated 48 hours after transfection
Procedure: A mouse erythroleukemia cell line, C19TK, also was used as a representative cell line for testing the transfection efficiency of the present invention with respect to hematopoietic cells. The expression vector, pDR2, which carries a hygromycin-resistance gene, was used for these studies, C19TK cells are exquisitely sensitive for the antibiotic hygromycin.
Briefly, about million cells are spun down and the cell pellet is treated with primer. The cells are then exposed to DNA-polypeptide complex under hypotonic condition. Forty-eight hours after transfection, a known number of cells are plated in microtiter plates with hygromycin. The number of wells with growing population of cells was enumerated to determine the transfection efficiency. The stable transfection efficiency was about 1-5%, as compared to most of the other non-virus-based methods that are very poor. Thus, the method described herein is very efficient for stable transfection efficiency both for hematopoietic and non hematopoietic cell lines. […] See Gilboa, et al. (1986), Miller, et al. (1986), Stuhlmann, et al. (1989), Miller, et al. (1989), and Zwiebel, et al. (1989), each cited above.

Question: For “PKKKRKVSGGGGGKKKKKKKKKKKK [Peptide-Mediated Gene Transfer, synthetic polypeptide (NLS peptide, neutral hinge, polylysine chain) linked electrostatically to DNA, forming a polypeptide-DNA complex]”, which “Stable Transfection Efficiency” value [1] is on record?
Answer: 5-10%

Question: And the “Stable Transfection Efficiency” value ([1]; listed as DNA-polypeptide complex)?
Answer: 5-10%

Question: And the “cells positive for the expression of the β-gal reporter gene” value [2]?
Answer: Forty to fifty

Question: What about the Stable Transfection Efficiency [3] of the same sequence?
Answer: 1-5%
